Test results reported in PubChem BioAssay AID256 (DTP/NCI, 2004).
Inconclusive results and toxic doses are left out.

Test system: CD2F1 mice, L1210 leukemia ip, survival T/C
Experiment: NCI In Vivo Anticancer Drug Screen. Data for tumor model L1210 Leukemia (intraperitoneal) in CD2F1 (CDF1) mice
Settings: higher = longer survival
Procedure, shortened: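 Antitumor effect is scored in animals hosting a serially transplanted tumor. Values compare compound-dosed animals against vehicle-only controls as a simple quotient.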

[1] = endpoint: mean survival time, dose: 100.0 mg/kg/injection, schedule: Q01DX009 (ip), vehicle: saline with Tween-80
[2] = endpoint: mean survival time, dose: 100.0 mg/kg/injection, schedule: Q04DX003 (ip), vehicle: saline with Tween-80
[3] = endpoint: mean survival time, dose: 200.0 mg/kg/injection, schedule: Q04DX003 (ip), vehicle: saline with Tween-80
[4] = endpoint: mean survival time, dose: 400.0 mg/kg/injection, schedule: Q04DX003 (ip), vehicle: saline with Tween-80

C[n+]1ccc(Nc2ccc(NC(=O)c3ccc(Nc4cc[n+](C)c5ccc(N)cc45)cc3)cc2)cc1
T/C (endpoint: mean survival time, dose: 2.0 mg/kg/injection, schedule: Q01DX009 (ip), vehicle: water): 313 % of control
T/C (endpoint: mean survival time, dose: 4.0 mg/kg/injection, schedule: Q01DX009 (ip), vehicle: water): 341 % of control
T/C (endpoint: median survival time, dose: 0.25 mg/kg/injection, schedule: Q03HX008 (ip), vehicle: water): 100 % of control
T/C (endpoint: median survival time, dose: 0.25 mg/kg/injection, schedule: Q03HX016 (ip), vehicle: water): 102 % of control
T/C (endpoint: median survival time, dose: 0.25 mg/kg/injection, schedule: Q03HX024 (ip), vehicle: water): 110 % of control
T/C (endpoint: median survival time, dose: 0.5 mg/kg/injection, schedule: Q01DX005 (ip), vehicle: water): 120 % of control
T/C (endpoint: median survival time, dose: 0.5 mg/kg/injection, schedule: Q01DX009 (ip), vehicle: water): 123 % of control
T/C (endpoint: median survival time, dose: 0.5 mg/kg/injection, schedule: Q01DX009 (sc), vehicle: water): 96 % of control
T/C (endpoint: median survival time, dose: 0.5 mg/kg/injection, schedule: Q03HX008 (ip), vehicle: water): 113 % of control
T/C (endpoint: median survival time, dose: 0.5 mg/kg/injection, schedule: Q03HX016 (ip), vehicle: water): 109 % of control
T/C (endpoint: median survival time, dose: 1.0 mg/kg/injection, schedule: Q01DX009 (sc), vehicle: water): 101 % of control
T/C (endpoint: median survival time, dose: 1.0 mg/kg/injection, schedule: Q03HX016 (ip), vehicle: water): 158 % of control
T/C (endpoint: median survival time, dose: 1.0 mg/kg/injection, schedule: Q03HX024 (ip), vehicle: water): 180 % of control
T/C (endpoint: median survival time, dose: 2.0 mg/kg/injection, schedule: Q01DX001 (ip), vehicle: water): 103 % of control
T/C (endpoint: median survival time, dose: 2.0 mg/kg/injection, schedule: Q01DX001 (sc), vehicle: water): 97 % of control
T/C (endpoint: median survival time, dose: 2.0 mg/kg/injection, schedule: Q01DX005 (ip), vehicle: water): 164 % of control
T/C (endpoint: median survival time, dose: 2.0 mg/kg/injection, schedule: Q01DX009 (ip), vehicle: water): 274 % of control
T/C (endpoint: median survival time, dose: 2.0 mg/kg/injection, schedule: Q01DX009 (oral), vehicle: water): 100 % of control
T/C (endpoint: median survival time, dose: 2.0 mg/kg/injection, schedule: Q01DX009 (sc), vehicle: water): 157 % of control
T/C (endpoint: median survival time, dose: 2.0 mg/kg/injection, schedule: Q03HX008 (ip), vehicle: water): 157 % of control
T/C (endpoint: median survival time, dose: 2.0 mg/kg/injection, schedule: Q03HX016 (ip), vehicle: water): 185 % of control
T/C (endpoint: median survival time, dose: 2.0 mg/kg/injection, schedule: Q03HX024 (ip), vehicle: water): 256 % of control
T/C (endpoint: median survival time, dose: 2.0 mg/kg/injection, schedule: Q04DX003 (ip), vehicle: water): 113 % of control
T/C (endpoint: median survival time, dose: 4.0 mg/kg/injection, schedule: Q01DX001 (ip), vehicle: water): 114 % of control
T/C (endpoint: median survival time, dose: 4.0 mg/kg/injection, schedule: Q01DX001 (sc), vehicle: water): 100 % of control
T/C (endpoint: median survival time, dose: 4.0 mg/kg/injection, schedule: Q01DX005 (ip), vehicle: water): 252 % of control
T/C (endpoint: median survival time, dose: 4.0 mg/kg/injection, schedule: Q01DX009 (ip), vehicle: water): 373 % of control
T/C (endpoint: median survival time, dose: 4.0 mg/kg/injection, schedule: Q01DX009 (oral), vehicle: water): 97 % of control
T/C (endpoint: median survival time, dose: 4.0 mg/kg/injection, schedule: Q01DX009 (sc), vehicle: water): 241 % of control
T/C (endpoint: median survival time, dose: 4.0 mg/kg/injection, schedule: Q03HX008 (ip), vehicle: water): 175 % of control
T/C (endpoint: median survival time, dose: 4.0 mg/kg/injection, schedule: Q03HX016 (ip), vehicle: water): 212 % of control
T/C (endpoint: median survival time, dose: 4.0 mg/kg/injection, schedule: Q03HX024 (ip), vehicle: water): 321 % of control
T/C (endpoint: median survival time, dose: 4.0 mg/kg/injection, schedule: Q08DX002 (ip), vehicle: water): 164 % of control
T/C (endpoint: median survival time, dose: 8.0 mg/kg/injection, schedule: Q01DX001 (oral), vehicle: water): 92 % of control
T/C (endpoint: median survival time, dose: 8.0 mg/kg/injection, schedule: Q01DX001 (sc), vehicle: water): 105 % of control
T/C (endpoint: median survival time, dose: 8.0 mg/kg/injection, schedule: Q01DX009 (ip), vehicle: water): 332 % of control
T/C (endpoint: median survival time, dose: 8.0 mg/kg/injection, schedule: Q01DX009 (oral), vehicle: water): 98 % of control
T/C (endpoint: median survival time, dose: 8.0 mg/kg/injection, schedule: Q01DX009 (sc), vehicle: water): 307 % of control
T/C (endpoint: median survival time, dose: 8.0 mg/kg/injection, schedule: Q04DX003 (ip), vehicle: water): 157 % of control
T/C (endpoint: median survival time, dose: 16.0 mg/kg/injection, schedule: Q01DX001 (oral), vehicle: water): 98 % of control
T/C (endpoint: median survival time, dose: 16.0 mg/kg/injection, schedule: Q01DX001 (sc), vehicle: water): 121 % of control
T/C (endpoint: median survival time, dose: 16.0 mg/kg/injection, schedule: Q01DX009 (oral), vehicle: water): 100 % of control
T/C (endpoint: median survival time, dose: 16.0 mg/kg/injection, schedule: Q01DX009 (sc), vehicle: water): 120 % of control
T/C (endpoint: median survival time, dose: 32.0 mg/kg/injection, schedule: Q01DX001 (oral), vehicle: water): 96 % of control
T/C (endpoint: median survival time, dose: 32.0 mg/kg/injection, schedule: Q01DX009 (oral), vehicle: water): 98 % of control
T/C (endpoint: median survival time, dose: 64.0 mg/kg/injection, schedule: Q01DX001 (oral), vehicle: water): 100 % of control
T/C (endpoint: median survival time, dose: 64.0 mg/kg/injection, schedule: Q01DX001 (sc), vehicle: water): 208 % of control
T/C (endpoint: median survival time, dose: 64.0 mg/kg/injection, schedule: Q01DX009 (oral), vehicle: water): 100 % of control
T/C (endpoint: median survival time, dose: 128.0 mg/kg/injection, schedule: Q01DX001 (oral), vehicle: water): 102 % of control
T/C (endpoint: median survival time, dose: 256.0 mg/kg/injection, schedule: Q01DX001 (oral), vehicle: water): 92 % of control

NC(=O)NC1CCCC1
T/C [1]: 107 % of control
T/C (endpoint: mean survival time, dose: 200.0 mg/kg/injection, schedule: Q01DX009 (ip), vehicle: saline with Tween-80): 107 % of control
T/C (endpoint: mean survival time, dose: 400.0 mg/kg/injection, schedule: Q01DX009 (ip), vehicle: saline with Tween-80): 107 % of control

O=C(OCC1OC(n2nc(SCc3ccccc3)c(=S)[nH]c2=O)C(OC(=O)c2ccccc2)C1OC(=O)c1ccccc1)c1ccccc1 (stereo unspecified)
T/C (endpoint: mean survival time, dose: 12.5 mg/kg/injection, schedule: Q01DX005 (ip), vehicle: distilled water + Tween-80): 101 % of control
T/C (endpoint: mean survival time, dose: 25.0 mg/kg/injection, schedule: Q01DX005 (ip), vehicle: distilled water + Tween-80): 95 % of control
T/C (endpoint: mean survival time, dose: 50.0 mg/kg/injection, schedule: Q01DX005 (ip), vehicle: distilled water + Tween-80): 102 % of control
T/C (endpoint: mean survival time, dose: 100.0 mg/kg/injection, schedule: Q01DX005 (ip), vehicle: distilled water + Tween-80): 93 % of control
T/C (endpoint: mean survival time, dose: 200.0 mg/kg/injection, schedule: Q01DX005 (ip), vehicle: distilled water + Tween-80): 95 % of control

Cc1cccc[n+]1CC(=O)c1ccccc1
T/C (endpoint: mean survival time, dose: 25.0 mg/kg/injection, schedule: Q04DX003 (ip), vehicle: saline): 104 % of control
T/C (endpoint: mean survival time, dose: 50.0 mg/kg/injection, schedule: Q04DX003 (ip), vehicle: saline): 96 % of control
T/C (endpoint: mean survival time, dose: 100.0 mg/kg/injection, schedule: Q04DX003 (ip), vehicle: saline): 96 % of control

CC(NC(=O)C(CSCc1ccccc1)NC(=O)OCc1ccccc1)C(=O)OCc1ccccc1 (stereo unspecified)
T/C [2]: 96 % of control
T/C [3]: 98 % of control
T/C [4]: 93 % of control

CCC(C)(CC)OC(=O)c1ccc([N+](=O)[O-])cc1
T/C (endpoint: mean survival time, dose: 100.0 mg/kg/injection, schedule: Q01DX001 (ip), vehicle: saline): 100 % of control
T/C (endpoint: mean survival time, dose: 200.0 mg/kg/injection, schedule: Q01DX001 (ip), vehicle: saline): 98 % of control
T/C (endpoint: mean survival time, dose: 400.0 mg/kg/injection, schedule: Q01DX001 (ip), vehicle: saline): 98 % of control

NC(CS(=O)c1ccc([N+](=O)[O-])cc1Cl)C(=O)O (stereo unspecified)
T/C [1]: 96 % of control

Cc1oc2ncnc(N)c2c1C
T/C [2]: 96 % of control
T/C [3]: 100 % of control
T/C [4]: 95 % of control

Cc1cccc(NC(=S)NC(=O)c2ccccc2)n1
T/C (endpoint: mean survival time, dose: 12.5 mg/kg/injection, schedule: Q01DX009 (ip), vehicle: other): 91 % of control
T/C (endpoint: mean survival time, dose: 25.0 mg/kg/injection, schedule: Q01DX009 (ip), vehicle: other): 92 % of control
T/C (endpoint: mean survival time, dose: 50.0 mg/kg/injection, schedule: Q01DX009 (ip), vehicle: other): 88 % of control
T/C (endpoint: mean survival time, dose: 100.0 mg/kg/injection, schedule: Q01DX009 (ip), vehicle: other): 88 % of control
T/C (endpoint: mean survival time, dose: 200.0 mg/kg/injection, schedule: Q01DX009 (ip), vehicle: other): 91 % of control

NNC(=S)Nc1ccccc1
T/C (endpoint: mean survival time, dose: 20.0 mg/kg/injection, schedule: Q04DX003 (ip), vehicle: saline with Tween-80): 98 % of control

C[n+]1nc(-c2ccccc2)oc1-c1ccccc1
T/C (endpoint: mean survival time, dose: 25.0 mg/kg/injection, schedule: Q04DX002 (ip), vehicle: saline with Tween-80): 100 % of control
T/C (endpoint: mean survival time, dose: 50.0 mg/kg/injection, schedule: Q04DX002 (ip), vehicle: saline with Tween-80): 100 % of control
T/C (endpoint: mean survival time, dose: 100.0 mg/kg/injection, schedule: Q04DX002 (ip), vehicle: saline with Tween-80): 108 % of control
T/C (endpoint: mean survival time, dose: 200.0 mg/kg/injection, schedule: Q04DX002 (ip), vehicle: saline with Tween-80): 106 % of control
